In patent US20110070232A1, “Combination Therapy with an Antitumor Alkaloid” (Pharma Mar, S.A., priority 2008, published 2011):
Like-named read-outs stand apart in the source and are kept apart here.

Assays:
NCI-H460 tumors = format: in vivo, mice
From the text: (§1) Female athymic nude mice (Harlan Sprague Dawley, Madison, Wis.) were utilized for all experiments. Animals were housed in ventilated rack caging with food and water ad libitum. The mice were acclimated for at least 5 days prior to tumor implantation.
The tumor model used in this study was NCI-H460 cell line which is a human NSCLC cell line obtained from the ATCC (Manassas, Va.). […] Cells from in vitro passage 9 were those implanted SC into study mice.
Treatments were initiated on DPI 8.
(§2) Tumor size measurements were recorded 2-3 times/week from the treatment initiation until the termination of the study.
(§3) Mean, standard deviation and standard error of the mean were determined for tumor volume for all animal groups at all assessments. Student's t test was performed on tumor volumes at each measurement day, including at the end of the study, to determine whether there were any statistically significant differences between combination treatment groups and single monotherapy treatment groups.

[1] = test system: HT-29 (colon cancer) cell line; assay: IC50 determination, MIT (tetrazolium) assay, 72 h (Example 18); format: cell-based, human; conditions: Homo sapiens; HT-29, 72 hours of drug exposure
Description: (§4) Before plating, cell cultures were trypsinized and cell number estimated using an automated flow cytometer.
(§5) Cells were harvested and seeded in 96 well microtiter plates at the appropriate cell density (5,000-10,000 cells) in 150 μL of media and incubated for 24 hours to allow the cells to attach before drug addition.
(§6) After the incubation period (72 hours), 50 μL of MIT solution was added to each microtiter well and incubated for further 8 hours at 37° C. The culture medium was then removed and 50 μl, of DMSO were added to dissolve the MIT crystals. Optical densities were read at 540 nm on spectrophotometer microplate reader.
(§7) IC50 values were calculated from an average of two to four assays for each of the test agents.

[2] = test system: LoVo (colon cancer) cell line; assay: as above; format: cell-based, human; conditions: Homo sapiens, 72 hours of drug exposure
Description: as §4, §5, §6, §7

H-Meso-1 tumors = format: in vivo, mice; conditions: G2 PM00104 0.9 mg/kg/day IV
Description: as §1
The tumor model used in this study was H-Meso-1 cell line which is a human mesothelioma cell line obtained from the DTP, DCTD tumor repository. […] Cells were implanted SC into study mice using a 1 ml syringe with a 13G trocar: 5×10^6 cells/mouse in 0.2 ml 50% Matrigel/50% RPMI medium of H-Meso-1 without serum or antibiotics. Bacterial culture was taken on cells used to implant the study.
Treatments were initiated on DPI 6.
as §2, §3

MRI-H-254 tumors = format: in vivo, mice; conditions: for % T/C on day 17 / % T/C on day 20 / % T/C on day 24 / % T/C on day 27 / % T/C on day 32 / % T/C on day 35 / % T/C on day 39 / % T/C on day 47: doxorubicin 6 IP
Description: as §1, with “implantation with tumor fragments. The Vehicle Control group contained 11 mice, groups 2-6 contained 8 mice/group, and the rest of groups contained 9 mice/group.” for “implantation.”
This cell line was grown and implanted to the animals as described in Example 11.
Tumor measurements were determined as disclosed in Example 4. […] Treatments were initiated on DPI 17.
PM00104 was provided in the form of vials of lyophilized PM00104 powder which was reconstituted with water for injection.
Tumor size measurements were recorded twice weekly from the treatment initiation until the termination of the study.
as §3
The definition and criteria for the evaluation of potentiation and the degree of additivity for the combination therapy were the same as those disclose in Example 4.

[3] = PM00104 0.9 mg/kg/day IV and/or Gemcitabine 180 mg/kg/day IP
[4] = PM00104 0.23 IV, paclitaxel 12.5 IP mg/kg/day (G4, G11, G12)
[5] = PM00104 0.45 IV, paclitaxel 12.5 IP mg/kg/day (G3, G9, G10)
[6] = PM00104 0.90 IV, paclitaxel 12.5 IP mg/kg/day (G2, G5, G6, G7, G8)
[7] = Gemcitabine 90 mg/kg/day IP, alone or with PM00104 0.9 mg/kg/day IV

## COc1c(C)cc2c(c1O)[C@@H]1[C@@H]3Cc4c(OC(C)=O)c(C)c5c(c4[C@H](CNC(=O)/C=C/c4cccc(C(F)(F)F)c4)N3[C@@H](O)[C@H](C2)N1C)OCO5 [PM00104]
NCI-H460 tumors; [3]
  % T/C on day 8: 103.0%
  % T/C on day 11: 98.5%
  % T/C on day 14: 85.6%
  % T/C on day 18: 90.8%
  % T/C on day 21: 81.2%
  % T/C on day 25: 76.7%
  % T/C on day 28: 77.3%
[1]
  IC50: 6 nM
[2]
  IC50: 3 nM
H-Meso-1 tumors
  % T/C on day 6: 98.5%
  % T/C on day 7: 80.3%
  % T/C on day 9: 69.7%
  % T/C on day 12: 63.3%
  % T/C on day 14: 62.9%
  % T/C on day 16: 62.1%
  % T/C on day 19: 55.1%
  % T/C on day 22: 51.6%
  % T/C on day 26: 56.0%
  % T/C on day 29: 64.9%
H-Meso-1 tumors; day 6
  % Inhibition: 1.5%
H-Meso-1 tumors; day 7
  % Inhibition: 19.7%
H-Meso-1 tumors; day 9
  % Inhibition: 30.3%
H-Meso-1 tumors; day 12
  % Inhibition: 36.7%
H-Meso-1 tumors; day 14
  % Inhibition: 37.1%
H-Meso-1 tumors; day 16
  % Inhibition: 37.9%
H-Meso-1 tumors; day 19
  % Inhibition: 44.9%
H-Meso-1 tumors; day 22
  % Inhibition: 48.4%
H-Meso-1 tumors; day 26
  % Inhibition: 44.0%
H-Meso-1 tumors; day 29
  % Inhibition: 35.0%
MRI-H-254 tumors; [4]
  % T/C on day 17: 97.5%
  % T/C on day 20: 113.0%
  % T/C on day 24: 89.9%
  % T/C on day 27: 75.9%
  % T/C on day 32: 72.7%
  % T/C on day 35: 62.4%
  % T/C on day 39: 57.6%
  % T/C on day 47: 66.8%
MRI-H-254 tumors; [5]
  % T/C on day 17: 100.0%
  % T/C on day 20: 109.2%
  % T/C on day 24: 91.3%
  % T/C on day 27: 71.0%
  % T/C on day 32: 51.8%
  % T/C on day 35: 38.4%
  % T/C on day 39: 31.8%
  % T/C on day 47: 21.5%
MRI-H-254 tumors; [6]
  % T/C on day 17: 98.5%
  % T/C on day 20: 95.6%
  % T/C on day 24: 56.9%
  % T/C on day 27: 46.4%
  % T/C on day 32: 31.2%
  % T/C on day 35: 22.6%
  % T/C on day 39: 14.5%
  % T/C on day 47: 9.5%
MRI-H-254 tumors; day 14, PM00104 0.23, doxorubicin 6, paclitaxel 12.5 mg/kg/day
  % Inhibition: 2.5%
MRI-H-254 tumors; day 14, PM00104 0.45, doxorubicin 6, paclitaxel 12.5 mg/kg/day
  % Inhibition: 0.0%
MRI-H-254 tumors; day 14, PM00104 0.90, paclitaxel 12.5 mg/kg/day
  % Inhibition: 1.5%
MRI-H-254 tumors; day 14, PM00104 0.9 and doxorubicin 6 mg/kg/day
  % Inhibition: 1.5%
MRI-H-254 tumors; day 20, PM00104 0.23, doxorubicin 6, paclitaxel 12.5 mg/kg/day
  % Inhibition: −13.0%
MRI-H-254 tumors; day 20, PM00104 0.45, doxorubicin 6, paclitaxel 12.5 mg/kg/day
  % Inhibition: −9.2%
MRI-H-254 tumors; day 20, PM00104 0.90, paclitaxel 12.5 mg/kg/day
  % Inhibition: 4.4%
MRI-H-254 tumors; day 20, PM00104 0.9 and doxorubicin 6 mg/kg/day
  % Inhibition: 4.4%
MRI-H-254 tumors; day 24, PM00104 0.23, doxorubicin 6, paclitaxel 12.5 mg/kg/day
  % Inhibition: 10.1%
MRI-H-254 tumors; day 24, PM00104 0.45, doxorubicin 6, paclitaxel 12.5 mg/kg/day
  % Inhibition: 8.7%
MRI-H-254 tumors; day 24, PM00104 0.90, paclitaxel 12.5 mg/kg/day
  % Inhibition: 43.1%
MRI-H-254 tumors; day 24, PM00104 0.9 and doxorubicin 6 mg/kg/day
  % Inhibition: 43.1%
MRI-H-254 tumors; day 27, PM00104 0.23, doxorubicin 6, paclitaxel 12.5 mg/kg/day
  % Inhibition: 24.1%
MRI-H-254 tumors; day 27, PM00104 0.45, doxorubicin 6, paclitaxel 12.5 mg/kg/day
  % Inhibition: 29.0%
MRI-H-254 tumors; day 27, PM00104 0.90, paclitaxel 12.5 mg/kg/day
  % Inhibition: 53.6%
MRI-H-254 tumors; day 27, PM00104 0.9 and doxorubicin 6 mg/kg/day
  % Inhibition: 53.6%
MRI-H-254 tumors; day 32, PM00104 0.23, doxorubicin 6, paclitaxel 12.5 mg/kg/day
  % Inhibition: 27.3%
MRI-H-254 tumors; day 32, PM00104 0.45, doxorubicin 6, paclitaxel 12.5 mg/kg/day
  % Inhibition: 48.2%
MRI-H-254 tumors; day 32, PM00104 0.90, paclitaxel 12.5 mg/kg/day
  % Inhibition: 68.8%
MRI-H-254 tumors; day 32, PM00104 0.9 and doxorubicin 6 mg/kg/day
  % Inhibition: 68.8%
MRI-H-254 tumors; day 35, PM00104 0.23, doxorubicin 6, paclitaxel 12.5 mg/kg/day
  % Inhibition: 37.6%
MRI-H-254 tumors; day 35, PM00104 0.45, doxorubicin 6, paclitaxel 12.5 mg/kg/day
  % Inhibition: 61.6%
MRI-H-254 tumors; day 35, PM00104 0.90, paclitaxel 12.5 mg/kg/day
  % Inhibition: 77.4%
MRI-H-254 tumors; day 35, PM00104 0.9 and doxorubicin 6 mg/kg/day
  % Inhibition: 77.4%
MRI-H-254 tumors; day 39, PM00104 0.23, doxorubicin 6, paclitaxel 12.5 mg/kg/day
  % Inhibition: 42.4%
MRI-H-254 tumors; day 39, PM00104 0.45, doxorubicin 6, paclitaxel 12.5 mg/kg/day
  % Inhibition: 68.2%
MRI-H-254 tumors; day 39, PM00104 0.90, paclitaxel 12.5 mg/kg/day
  % Inhibition: 85.5%
MRI-H-254 tumors; day 39, PM00104 0.9 and doxorubicin 6 mg/kg/day
  % Inhibition: 85.5%
MRI-H-254 tumors; day 47, PM00104 0.23, doxorubicin 6, paclitaxel 12.5 mg/kg/day
  % Inhibition: 33.2%
MRI-H-254 tumors; day 47, PM00104 0.45, doxorubicin 6, paclitaxel 12.5 mg/kg/day
  % Inhibition: 78.5%
MRI-H-254 tumors; day 47, PM00104 0.90, paclitaxel 12.5 mg/kg/day
  % Inhibition: 90.5%
MRI-H-254 tumors; day 47, PM00104 0.9 and doxorubicin 6 mg/kg/day
  % Inhibition: 90.5%

## Nc1ccn([C@@H]2O[C@H](CO)[C@@H](O)C2(F)F)c(=O)n1 [Gemcitabine, gemcitabine]
NCI-H460 tumors; [7]
  % T/C on day 8: 108.6%
  % T/C on day 11: 83.2%
  % T/C on day 14: 90.2%
  % T/C on day 18: 65.3%
  % T/C on day 21: 73.4%
  % T/C on day 25: 63.2%
  % T/C on day 28: 76.9%
NCI-H460 tumors; [3]
  % T/C on day 8: 101.3%
  % T/C on day 14: 67.5%
  % T/C on day 18: 52.0%
  % T/C on day 21: 69.3%
  % T/C on day 25: 58.7%
  % T/C on day 28: 56.8%
